In patent publication US12527884B2, “Use of cyclodextrins as a radiostabilizer” (GE Healthcare Limited, priority 2019, dated 2026):

Columns and labels:
[1] = Radiochemical purity (RCP) and [18F]fluoride of formulated [18F]flurpiridaz during storage (radio TLC or HPLC); type: physicochemical
Experimental: Radiochemical purity (RCP) is determined using radio TLC or HPLC and can be defined as the ratio of the (radio-labelled) drug substance peak to the total (radio-labelled) peaks in the chromatogram. If one manufactures a radiopharmaceutical with high radioactive concentration (RAC), the drop in RCP during storage is likely to be higher than at lower RAC due to more radiolysis. High radioactivity results in the drug substance destroying itself (i.e. radiolysis). The most efficient stabilizer can be identified by preparing different formulations of radiopharmaceuticals at similar RAC and comparing the drop in RCP over time, typically 8-10 hours for ^18F compounds.
The first 45 mL product vial was composed of water (42 mL), ethanol (3 mL), calcium disodium edetate (0.25 mg/mL), ascorbic acid (50 mg/mL) and sodium hydroxide (7.5 mg/mL). […]

[2] = Aqueous solubility of flurpiridaz with HPbCD; type: physicochemical

CC(C)(C)n1ncc(OCc2ccc(COCCF)cc2)c(Cl)c1=O [[^18F]flurpiridaz, flurpiridaz]
radiostability ([1]; 30 mg/mL ascorbic acid and 40 mg/mL HPbCD vs 50 mg/mL ascorbic acid without HPbCD): equal or better | change in RCP over 4 to 10 h (FIG. 2) ([1]; 30 to 50 mg/mL ascorbic acid (pH ~6), with or without 40-47 mg/mL HPbCD, ca. 7% (v/v) ethanol, 0-21% (v/v) oxygen headspace): reduction | aqueous solubility [2]: improves
